ChEMBL document CHEMBL5352454, “Design, synthesis, and evaluation of tricyclic compounds containing phenyl-tetrazole as XOR inhibitors” (Eur J Med Chem, 2023)
Active and inactive are the calls of the source. No cut-off for these calls is given here.

Legend:
[1] = biological target: T1, Xanthine dehydrogenase/oxidase (Homo sapiens, UniProt P47989); experiment: Inhibition of XOR (unknown origin) using xanthine as substrate incubated for 3 mins followed by xanthine addition by spectroscopy based analysis
T1 sequence (P47989 whole entry): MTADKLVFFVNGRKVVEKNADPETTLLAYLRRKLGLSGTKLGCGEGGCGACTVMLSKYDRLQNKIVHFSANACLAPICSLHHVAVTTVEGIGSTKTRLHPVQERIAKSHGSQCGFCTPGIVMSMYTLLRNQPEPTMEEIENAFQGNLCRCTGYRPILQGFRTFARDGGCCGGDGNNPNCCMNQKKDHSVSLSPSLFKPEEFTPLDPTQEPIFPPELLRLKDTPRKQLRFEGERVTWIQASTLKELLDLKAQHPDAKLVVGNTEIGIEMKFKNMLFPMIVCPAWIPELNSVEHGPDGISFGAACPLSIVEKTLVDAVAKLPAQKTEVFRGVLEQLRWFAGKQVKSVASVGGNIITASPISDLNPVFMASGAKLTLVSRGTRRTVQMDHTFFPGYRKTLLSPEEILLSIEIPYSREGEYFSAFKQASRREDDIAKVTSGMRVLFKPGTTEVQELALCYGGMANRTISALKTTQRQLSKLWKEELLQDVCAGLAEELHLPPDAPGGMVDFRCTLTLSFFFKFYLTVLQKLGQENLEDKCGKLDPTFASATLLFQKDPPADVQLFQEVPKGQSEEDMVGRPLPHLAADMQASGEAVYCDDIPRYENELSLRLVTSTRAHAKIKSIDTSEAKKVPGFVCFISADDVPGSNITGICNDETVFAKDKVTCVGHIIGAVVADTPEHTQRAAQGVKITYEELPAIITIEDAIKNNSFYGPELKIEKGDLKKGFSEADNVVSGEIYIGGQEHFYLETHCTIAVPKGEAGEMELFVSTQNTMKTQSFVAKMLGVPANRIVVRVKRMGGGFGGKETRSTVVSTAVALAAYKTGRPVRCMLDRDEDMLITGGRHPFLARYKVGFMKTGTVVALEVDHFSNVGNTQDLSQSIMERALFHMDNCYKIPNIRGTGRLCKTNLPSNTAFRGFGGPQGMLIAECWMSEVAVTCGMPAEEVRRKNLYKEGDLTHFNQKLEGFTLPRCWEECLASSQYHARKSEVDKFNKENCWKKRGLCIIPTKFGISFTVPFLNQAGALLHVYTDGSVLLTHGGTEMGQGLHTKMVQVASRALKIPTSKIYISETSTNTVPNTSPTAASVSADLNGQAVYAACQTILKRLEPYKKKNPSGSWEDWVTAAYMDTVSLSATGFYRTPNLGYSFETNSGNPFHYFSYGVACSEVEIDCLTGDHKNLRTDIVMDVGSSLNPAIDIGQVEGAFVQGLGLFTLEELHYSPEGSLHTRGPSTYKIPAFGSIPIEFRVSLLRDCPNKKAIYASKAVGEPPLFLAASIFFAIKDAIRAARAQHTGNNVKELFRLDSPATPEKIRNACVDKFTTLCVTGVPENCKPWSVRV

Mus musculus [2] = experiment: Hypouricemic activity in hypoxanthine/potassium oxonate-induced hyperuricemia mouse model assessed as reduction in uric acid level at 5 mg/kg, IG measured after 3 hrs; assay type: functional, organism-based
Mus musculus [3] = experiment: Hypouricemic activity in hypoxanthine/potassium oxonate-induced hyperuricemia mouse model assessed as reduction in serum uric acid level at 5 mg/kg, IG measured upto 9 hrs; assay type: functional, organism-based
Mus musculus [4] = experiment: Hypouricemic activity in hypoxanthine/potassium oxonate-induced hyperuricemia mouse model assessed as reduction in uric acid level at 5 mg/kg, IG measured after 3 to 5 hrs; assay type: functional, organism-based; conditions: time 3-5 hrs
[5] = biological target: T1, Xanthine dehydrogenase/oxidase; experiment: Inhibition of XOR (unknown origin) using xanthine as substrate at 10 uM incubated for 3 mins followed by xanthine addition by spectroscopy based analysis relative to control; conditions: 0.05 h

SMILES | IC50 [1] [nM] | also measured
O=Cc1ccccc1-c1ccc(-c2nnn[nH]2)cc1 | 490 | 
O=Cc1cc(Cl)ccc1-c1ccc(-c2nnn[nH]2)cc1 | 540 | 
c1cc(-c2ccc(-c3nnn[nH]3)cc2)cs1 |  | inhibition at 10 µM [5]: < 50%
CC(C)(C)c1ccc(-c2ccc(-c3nnn[nH]3)cc2)cc1 | 4230 | 
COc1ccccc1-c1ccc(-c2nnn[nH]2)cc1 | 1690 | 
CCOc1ccc(-c2ccc(-c3nnn[nH]3)cc2)cc1 | 440 | 
O=C(O)c1cc(-c2ccc(-c3nnn[nH]3)cc2)ccc1Cl | 720 | 
COc1ccc(-c2ccc(-c3nnn[nH]3)cc2)cc1 | 1390 | 
CCOc1ccccc1-c1ccc(-c2nnn[nH]2)cc1 |  | inhibition at 10 µM [5]: < 50%
c1ncc(-c2ccc(-c3nnn[nH]3)cc2)cn1 | 920 | 
CCOc1ccc(CNC(=O)c2ccc(-c3nnn[nH]3)cc2)cc1 | 370 | 
O=C(O)c1ccc(-c2ccc(-c3nnn[nH]3)cc2)cc1Cl | 410 | 
COc1cccc(-c2ccc(-c3nnn[nH]3)cc2)c1 | 2090 | 
c1cc(-c2ccc(-c3nnn[nH]3)cc2)co1 |  | inhibition at 10 µM [5]: < 50%
c1cc(-c2ccc(-c3nnn[nH]3)cc2)n[nH]1 |  | inhibition at 10 µM [5]: < 50%

More lines, in order of falling IC50 [1], values ahead:

IC50 [1] [nM] | SMILES | also measured
180 | CC(=O)c1ccc(-c2ccc(-c3nnn[nH]3)cc2)cc1 | 
160 | CCCOc1ccc(NC(=O)c2ccc(-c3nnn[nH]3)cc2)cc1 | 
55 | CC(C)Oc1ccc(NC(=O)c2ccc(-c3nnn[nH]3)cc2)cc1 | Activity (Mus musculus [3]): Active; Activity (Mus musculus [4]): Active
40 | COc1ccc(NC(=O)c2ccc(-c3nnn[nH]3)cc2)cc1 | 
29.3 | CCOc1ccc(NC(=O)c2ccc(-c3nnn[nH]3)cc2)cc1 | Activity (Mus musculus [3]): Active; Activity (Mus musculus [4]): Active
26.3 | O=C(Nc1ccc(Cl)cc1)c1ccc(-c2nnn[nH]2)cc1 | Activity (Mus musculus [3]): Active; Activity (Mus musculus [4]): Active
6.91 | Cc1nc(-c2ccc(OCC(C)C)c(C#N)c2)sc1C(=O)O [FEBUXOSTAT] | Activity (Mus musculus [2]): Active
